From patent US7341752B2, “Antibacterial treatment and composition” (Academia Sinica, priority 2005, dated 2008) come the findings set out here.

In the experiment the test system is pathogenic Listeria bacteria. As to the kind of experiment: Prevention of Listeria infection in mice (centaurein given before infection), cumulative survival. To be noted: 20 μg per capita intraperitoneally 24 h before 1-2×10^6 Listeria i.p.; ten days after Listeria injection. Format: in vivo, C57BL/6J mice. The procedure: Six-to-eight week-old C57BL/6J mice were injected intraperitoneally with centaurein at a dose ranging from 0-20 μg per capita. After twenty four hours, the same mice were injected with pathogenic Listeria bacteria. A dose of 1-2×10^6 bacteria were introduced intraperitoneally (in a total volume of 0.2 ml) into each mouse. The cumulative survival rates of the mice were then determined. […] In contrast, only 10% of the mice that were injected with Listeria and not treated with centaurein survived. Thus, centaurein protected the mice from a Listerial infection.

As for `COc1ccc(-c2oc3cc(O[C@@H]4O[C@H](CO)[C@@H](O)[C@H](O)[C@H]4O)c(OC)c(O)c3c(=O)c2OC)cc1O` [centaurein], the “cumulative survival of mice” value is reported as “all of the mice”.
